Results published in patent US8188222B2, “High molecular weight derivative of nucleic acid antimetabolite” (priority 2006, dated 2012).
Structures can show the parent of a compound that is named as a salt.

Tests used:
[1] = system: mouse colon cancer, Colon26; experiment: Antitumor effect against tumor-bearing mouse (1); type: in vivo; conditions: 8th day after initiation of administration, once intravenously, volume on day of administration = 1.0, average ± SD
Source text: Tumor of mouse colon cancer, Colon26, maintained by subcutaneous subculture in mice, was minced into about 2-mm square blocks, and the blocks were transplanted subcutaneously on the dorsal part of a mouse using a trocar. On the 7th day after tumor transplantation, the compound of Example 5 dissolved in a 5% glucose injection solution and gemcitabine hydrochloride as a control drug dissolved in physiological saline were respectively administered once intravenously at the doses indicated in Table 2. The tumor volumes on the day of initiation of administration and on the 8th day after the initiation of administration were calculated by the following equation, and the relative tumor volumes on the day of initiation of administration and on the 8th day after the initiation of administration were determined.

[2] = system: mouse colon cancer, Colon26; experiment: Antitumor effect against tumor-bearing mouse (2); type: in vivo; conditions: once intravenously, dose 160 in terms of gemcitabine hydrochloride, average ± SD
Source text: A tumor mass of mouse colon cancer, Colon26, which had been subcutaneously subcultured in a mouse was cut into a block having an edge of about 2 mm at each side, and was transplanted under the skin of a mouse using a trocar. On the 7th day after tumor transplantation, the compound of Example 11, the compound of Example 14 and the compound of Example 17, dissolved in a 5% glucose injection solution and gemcitabine hydrochloride as a control drug dissolved in physiological saline were respectively administered once intravenously at the doses indicated in Table 3. The tumor volumes on the day of initiation of administration, and on the 7th day and 26th day after the initiation of administration were calculated by the above-described equation, and the relative tumor volumes on the day of initiation of administration and on the 7th day and 26th day after the initiation of administration were determined.

## Nc1ccn([C@@H]2O[C@H](CO)[C@@H](O)C2(F)F)c(=O)n1 [Control drug, gemcitabine hydrochloride]
[1]; dose 40 mg/kg in terms of gemcitabine hydrochloride
  Relative tumor volume: 5.3 ± 1.1
[1]; dose 200 mg/kg in terms of gemcitabine hydrochloride
  Relative tumor volume: 4.8 ± 1.7
[2]; 7th day after initiation of administration
  Relative tumor volume *: 1.5 ± 1.5
[2]; 26th day after initiation of administration
  Relative tumor volume **: 25.8 ± 36.0
